# According to article PMC4805166, “Synthetic Cyclolipopeptides Selective against Microbial, Plant and Animal Cell Targets by Incorporation of D-Amino Acids or Histidine” (PLoS ONE, 2016):
# Where “and” joins values, the source holds several entries; their conditions need not be identical. Equal values may be shown once. Read-outs that look alike come from different tables or passages of the source. Where a SMILES comes first, the peptide text is derived from it. Side-chain parts run from the residue outwards. [ ]: non-standard residue; d: D form. The star is where a group is joined. Pentanoyl(4-Me) = CC(C)CCC(=O)*; Octanoyl = CCCCCCCC(=O)*; Hexanoyl = CCCCCC(=O)*; Pentanoyl = CCCCC(=O)*; Butyryl = CCCC(=O)*
# Experiments:
# [1] = system: Fusarium oxysporum f. sp. lycopersici FOL 3 race 2; experiment: MIC, antifungal growth inhibition; type: cell-based
# Experimental: Fusarium oxysporum f. sp. lycopersici FOL 3 race 2 (ATCC 201829, American Type Culture Collection) was used as fungal pathogen. The strain was cultured on potato dextrose agar (PDA) plates (Difco) and microconidia were obtained after growth at 25°C. The concentration of conidia was determined using a hemacytometer and adjusted to 10^4 conidia mL^-1.
# (§1) Lyophilized peptides were solubilized in sterile Milli-Q water to a final concentration of 1 mM and filter sterilized through a 0.22-μm pore filter. For minimum inhibitory concentration (MIC) assessment, dilutions of the compounds were made to obtain a stock concentration of […]. For antibacterial activity twenty microlitres of each dilution were mixed in a microtiter plate well with 20 μL of the corresponding suspension of the bacterial indicator, 160 μL of Trypticase Soy Broth (TSB) (BioMèrieux, France) to a total volume of 200 μL. For antifungal activity 20 μL of each stock solution were mixed in a microtiter plate well with 80 μL of the corresponding suspension of the fungal pathogen and 100 μL of double concentrated PDB to a total volume of 200 μL containing 0.003% w/v of choramphenicol.
# (§2) Three replicates for each strain, compound and concentration were used. Microbial growth was determined by optical density measurement at 600 nm (Bioscreen C, Labsystem, Helsinki, Finland). For antibacterial activity microplates were incubated at 25°C with 20 sec shaking before hourly absorbance measurement for 48 h. For antifungal activity microplates were incubated at 20°C with 1 min shaking before absorbance measurement that were done every two hours during seven days. The experiment was repeated twice. The MIC was taken as the lowest compound concentration with no growth at the end of the experiment.
# [2] = system: Erwinia amylovora PMV6076; experiment: MIC, in vitro growth inhibition; type: cell-based; conditions: TSB, 25°C, 48 h, OD 600 nm; tested at 3.1, 6.2, 12.5, 25, 50 μM; three replicates, experiment repeated twice; MIC = lowest concentration with no growth
# Experimental: (§3) The following plant pathogenic bacterial strains were used: Erwinia amylovora PMV6076 (Institut National de la Recherche Agronomique, Angers, France), Pseudomonas syringae pv. syringae EPS94 (Institut de Tecnologia Agroalimentària, Universitat de Girona, Spain) and Xanthomonas axonopodis pv. vesicatoria 2133–2 (Instituto Valenciano de Investigaciones Agrarias, Valencia, Spain). All bacteria were stored in Luria Bertani (LB) broth supplemented with glycerol (20%) and maintained at -80°C. Bacteria were scrapped from LB agar after growing for 24–48 h at 25°C. The cell material was suspended in sterile water to obtain a suspension of 10^8 CFU mL^-1.
# as §1, §2
# [3] = system: erythrocyte suspensions of horse blood; conditions: horse erythrocytes 5% vol/vol, TRIS buffer pH 7.2, 1 h at 37°C, absorbance 540 nm, relative to melittin 100 μM, ± confidence interval (α = 0.05); for Hemolysis (%) 150 µM: 150 µM peptide; for Hemolysis (%) 250 µM: 250 µM peptide;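 for all read-outs here: Read-out is hemoglobin release into the supernatant, with a buffer-only blank subtracted as the 0% baseline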
# [4] = system: Xanthomonas axonopodis pv. vesicatoria 2133–2; type: cell-based; conditions: TSB, 25°C, 48 h, OD 600 nm; tested at 3.1, 6.2, 12.5, 25, 50 μM; three replicates, experiment repeated twice; MIC = lowest concentration with no growth
# Experimental: as §3, §1, §2
# [5] = system: Pseudomonas syringae pv. syringae EPS94; type: cell-based; conditions: 48 h
# Experimental: as §3, §1, §2
# [6] = PDB with 0.003% chloramphenicol, 20°C, seven days, OD 600 nm, tested at 3.1, 6.2, 12.5, 25, 50 μM, three replicates, repeated twice
SMILES,MIC Fo [1],"MIC Fo [1, 6]",MIC Ea [2],Hemolysis (%) 150 µM [3],Hemolysis (%) 250 µM [3],MIC Xav [4],MIC Pss [5]
"CCCCCC(=O)N[C@@H](CCCCN)C(=O)N[C@@H](CC(C)C)C(=O)NCCCC[C@H]1NC(=O)[C@H](CCCCN)NC(=O)[C@H](CC(C)C)NC(=O)[C@H](CCCCN)NC(=O)[C@H](CCCCN)NC(=O)[C@H](CCC(N)=O)NC(=O)[C@H](CC(C)C)NC(=O)[C@H](CCCCN)NC(=O)[C@H](CCCCN)NC(=O)[C@H](Cc2ccccc2)NC1=O [BPC672, c(KKLKk(LK-CO-nC5H11)FKKLQ)] (cyclo(FKKLQKKLK[dK]([Leu-Lys-Hexanoyl])))",3.1 to 6.2 µM,3.1 to 6.2 µM,25 to 50 µM,33 ± 2%,33 ± 2%,3.1 to 12.5 µM and 6.2 to 12.5 µM,6.2 to 12.5 µM
"CCCCCC(=O)NCCCC[C@H]1NC(=O)[C@H](CCCCN)NC(=O)[C@H](CC(C)C)NC(=O)[C@H](CCCCN)NC(=O)[C@H](CCCCN)NC(=O)[C@H](CCC(N)=O)NC(=O)[C@H](CC(C)C)NC(=O)[C@H](CCCCN)NC(=O)[C@H](CCCCN)NC(=O)[C@H](Cc2ccccc2)NC1=O [BPC628, c(KKLKk(CO-nC5H11)FKKLQ)] (cyclo(FKKLQKKLK[dK](Hexanoyl)))",,6.2 to 12.5 µM,25 to 50 µM,19 ± 2%,34 ± 3%,6.2 to 12.5 µM,12.5 to 25 µM
"CC(C)CCC(=O)NCCCC[C@@H]1NC(=O)[C@H](CCCCN)NC(=O)[C@H](CC(C)C)NC(=O)[C@H](CCCCN)NC(=O)[C@H](CCCCN)NC(=O)[C@H](CCC(N)=O)NC(=O)[C@H](CC(C)C)NC(=O)[C@H](CCCCN)NC(=O)[C@H](CCCCN)NC(=O)[C@@H](Cc2ccccc2)NC1=O [BPC626, c(KKLKK(CO-isoC5H11)fKKLQ)] (cyclo(KKLKK(Pentanoyl(4-Me))[dF]KKLQ))",,6.2 to 12.5 µM,25 to 50 µM,51 ± 7%,54 ± 4%,6.2 to 12.5 µM,12.5 to 25 µM
"CCCC(=O)N[C@@H](CCCCN)C(=O)N[C@@H](CC(C)C)C(=O)NCCCC[C@H]1NC(=O)[C@H](CCCCN)NC(=O)[C@H](CC(C)C)NC(=O)[C@H](CCCCN)NC(=O)[C@H](CCCCN)NC(=O)[C@H](CCC(N)=O)NC(=O)[C@H](CC(C)C)NC(=O)[C@H](CCCCN)NC(=O)[C@H](CCCCN)NC(=O)[C@H](Cc2ccccc2)NC1=O [BPC724, c(KKLKk(LK-CO-C3H7)FKKLQ)] (cyclo(FKKLQKKLK[dK]([Leu-Lys-Butyryl])))",,<3.1 µM,25 to 50 µM,3 ± 2%,3 ± 0.5%,6.2 to 12.5 µM,12.5 to 25 µM
"CCCC(=O)NCCCC[C@@H]1NC(=O)[C@H](CCC(N)=O)NC(=O)[C@H](CC(C)C)NC(=O)[C@H](CCCCN)NC(=O)[C@H](CCCCN)NC(=O)[C@@H](Cc2ccccc2)NC(=O)[C@H](CCCCN)NC(=O)[C@H](CCCCN)NC(=O)[C@H](CC(C)C)NC(=O)[C@H](CCCCN)NC1=O [BPC716, c(K(CO-C3H7)KLKKfKKLQ)] (cyclo(K(Butyryl)KLKK[dF]KKLQ))",,3.1 to 6.2 µM,25 to 50 µM,2 ± 1%,4 ± 0.5%,25 to 50 µM,12.5 to 25 µM
"CCCCC(=O)NCCCC[C@@H]1NC(=O)[C@H](CCCCN)NC(=O)[C@H](CC(C)C)NC(=O)[C@H](CCCCN)NC(=O)[C@H](CCCCN)NC(=O)[C@H](CCC(N)=O)NC(=O)[C@H](CC(C)C)NC(=O)[C@H](CCCCN)NC(=O)[C@H](CCCCN)NC(=O)[C@H](Cc2ccccc2)NC1=O [BPC526, c(KKLKK(CO-C4H9)FKKLQ)] (cyclo(FKKLQKKLKK(Pentanoyl)))",,6.2 to 12.5 µM,12.5 to 25 µM,62 ± 2%,78 ± 3%,<3.1 µM,12.5 to 25 µM
"CCCCCCCC(=O)NCCCC[C@@H]1NC(=O)[C@H](CCCCN)NC(=O)[C@H](CC(C)C)NC(=O)[C@H](CCCCN)NC(=O)[C@H](CCCCN)NC(=O)[C@H](CCC(N)=O)NC(=O)[C@H](CC(C)C)NC(=O)[C@H](CCCCN)NC(=O)[C@H](CCCCN)NC(=O)[C@H](Cc2c[nH]cn2)NC1=O [BPC670, c(KKLKK(CO-C7H15)HKKLQ)] (cyclo(HKKLQKKLKK(Octanoyl)))",,3.1 to 6.2 µM,25 to 50 µM,34 ± 1%,40 ± 1%,12.5 to 25 µM,12.5 to 25 µM
"CCCCCC(=O)N[C@@H](CCCCN)C(=O)N[C@@H](CC(C)C)C(=O)NCCCC[C@@H]1NC(=O)[C@H](CCCCN)NC(=O)[C@H](CC(C)C)NC(=O)[C@H](CCCCN)NC(=O)[C@H](CCCCN)NC(=O)[C@H](CCC(N)=O)NC(=O)[C@H](CC(C)C)NC(=O)[C@H](CCCCN)NC(=O)[C@H](CCCCN)NC(=O)[C@@H](Cc2ccccc2)NC1=O [BPC674, c(KKLKK(LK-CO-nC5H11)fKKLQ)] (cyclo(KKLKK([Leu-Lys-Hexanoyl])[dF]KKLQ))",3.1 to 6.2 µM,3.1 to 6.2 µM,25 to 50 µM,51 ± 2%,56 ± 2%,3.1 to 12.5 µM and 6.2 to 12.5 µM,6.2 to 12.5 µM
"CCCCCCCC(=O)NCCCC[C@@H]1NC(=O)[C@H](CCCCN)NC(=O)[C@H](CC(C)C)NC(=O)[C@H](CCCCN)NC(=O)[C@H](CCCCN)NC(=O)[C@H](CCC(N)=O)NC(=O)[C@H](CC(C)C)NC(=O)[C@H](CCCCN)NC(=O)[C@H](CCCCN)NC(=O)[C@@H](Cc2ccccc2)NC1=O [BPC668, c(KKLKK(CO-C7H15)fKKLQ)] (cyclo(KKLKK(Octanoyl)[dF]KKLQ))",,6.2 to 12.5 µM,25 to 50 µM,79 ± 2%,79 ± 1%,6.2 to 12.5 µM,12.5 to 25 µM
"CCCC(=O)NCCCC[C@@H]1NC(=O)[C@H](CCCCN)NC(=O)[C@H](CC(C)C)NC(=O)[C@H](CCCCN)NC(=O)[C@H](CCCCN)NC(=O)[C@H](CCC(N)=O)NC(=O)[C@H](CC(C)C)NC(=O)[C@H](CCCCN)NC(=O)[C@H](CCCCN)NC(=O)[C@H](Cc2c[nH]cn2)NC1=O [BPC718, c(KKLKK(CO-C3H7)HKKLQ)] (cyclo(HKKLQKKLKK(Butyryl)))",,6.2 to 12.5 µM,>50 µM,3 ± 1%,4 ± 1%,12.5 to 25 µM,12.5 to 25 µM
CCCCCC(=O)NCCCC[C@@H]1NC(=O)[C@H](CCCCN)NC(=O)[C@H](CCC(N)=O)NC(=O)[C@H](CC(C)C)NC(=O)[C@H](CCCCN)NC(=O)[C@H](CCCCN)NC(=O)[C@H](Cc2c[nH]cn2)NC(=O)[C@H](CCCCN)NC(=O)[C@H](CCCCN)NC(=O)[C@H](CC(C)C)NC1=O [BPC682] (cyclo(HKKLQKK(Hexanoyl)LKK)),,3.1 to 6.2 µM,25 to 50 µM,20 ± 3%,27 ± 1%,12.5 to 25 µM,12.5 to 25 µM
"CCCC(=O)N[C@@H](CCCCN)C(=O)N[C@@H](CC(C)C)C(=O)NCCCC[C@@H]1NC(=O)[C@H](CCCCN)NC(=O)[C@H](CC(C)C)NC(=O)[C@H](CCCCN)NC(=O)[C@H](CCCCN)NC(=O)[C@H](CCC(N)=O)NC(=O)[C@H](CC(C)C)NC(=O)[C@H](CCCCN)NC(=O)[C@H](CCCCN)NC(=O)[C@@H](Cc2ccccc2)NC1=O [BPC726, c(KKLKK(LK-CO-C3H7)fKKLQ)] (cyclo(KKLKK([Leu-Lys-Butyryl])[dF]KKLQ))",,3.1 to 6.2 µM,25 to 50 µM,0 ± 1%,4 ± 2%,6.2 to 12.5 µM,12.5 to 25 µM
